In brackets after ≈: the same amount, converted by molar mass. Several values for one entry are separate records, joined by “and”; a condition that tells them apart may be missing. Equal entries are not always repeated. Where two headings read alike, the source gives them in different places.
Legend:
[1] = Formation of inclusion complexes with MCD (UV spectroscopy, Hill linearization); format: physicochemical; details: for EE, % / LC, % / n: MCD; for EE, % / LC, %: C(MCD) = 0.01 M, pH 6.2, 22 °C; for n: Xaq + n MCDaq ⇌ X·nMCDaq, 5 mM sodium phosphate buffer pH 6.2, 22 °C
Method: To optimize the system composition, similar experiments were carried out on the formation of EG and apiol inclusion complexes with HPCD (Figure S1). […] According to these changes, the dissociation constants of the EG–HPCD and apiol–HPCD complexes (Figure S2) were calculated by Hill’s equation (Table 1). […] The physicochemical parameters of the interaction of APAB and terpenoids (X) with CD were studied by determining the concentration of substances in the aqueous fraction ([APAB] + [APAB-MCD]) according to the calibration dependence (Figure 1C) for systems with a constant amount of the essential oil component X and the concentration gradient MCD (Table 1). Theta (θ) is a fraction of the bound substance X:θ = [X-MCD]/([X-MCD] + [X]) and was calculated based on the dependence of the absorption intensity X on the MCD concentration in the system in the form of a sigmoidal Hill curve with subsequent linearization (Section 3, Section 3.3 and Section 3.4).
The molar excess of CD varied from 0.04 to 10). Further, the complexes were incubated for 1 h at 37 °C and then centrifuged ([…], 15 min, Eppendorf tubes) to separate the insoluble fractions. Complexes were studied by UV and FTIR spectroscopy.
UV spectra of solutions (point 3.3.1) were recorded on the AmerSham Biosciences UltraSpec 2100 pro device (USA) three times in the range of 200–400 nm in a quartz cell Hellma 100–QS with an optical path of 1 cm. Background spectrum (5 mM sodium phosphate buffer (pH 6.2) with 50% EtOH) was subtracted as a blank.
(1) Calculation of the dissociation constants X–MCD and X–HPCD, where X is a “guest” compound, considering the equilibrium: Xaq + n MCDaq ↔ X·nMCDaq, where Kd = [MCDaq]^n · [Xaq]/[X·nMCDaq].
First, fitting of the curves of change of the analytical signal ξ (peak intensity or peak position) versus concentration of the MCD or HPCD or was carried out using the Hill equations: (1) ξ = ξ∞ · [MCD]^n/([MCD]^n + K^n), where ξ∞—horizontal asymptote; (2) ξ = ξ0 + (ξ∞–ξ0) · [MCD]^n/([MCD]^n + K^n). Second, calculation n and Kd values by Hill’s linearization in n-binding site model: lg (θ/(1 – θ)) = n · lg [L] – lg Kd, where θ = |(ξ – ξ0)/(ξ∞ − ξ0)|is a fraction of the bound substance. N in Hill equation—number of drug molecules per CD torus.
Calculations for the following items are performed when [MCD] = 0.01 M.

E. coli (NCIB 12210) [2] = assay: Agar diffusion test, MIC; format: cell-based, Escherichia coli; details: for antibacterial activity of CD complex: up to 3–5 mg/mL concentration; for MIC: LB pH 7.2, 37 °C, 20 h
Method: (§1) The strains used in this study were Escherichia coli (NCIB 12210) and Bacillus subtilis (NCIB 8054) from National Resource Center All-Russian collection of industrial microorganisms SIC “Kurchatov Institute”). The culture was cultivated for 18–20 h at 37 °C to CFU ≈ 5 × 10^6 – 8 × 10^6 (determined by A600) in liquid nutrient medium Luria–Bertani (pH 7.2): E. coli—without stirring, B. subtilis—with stirring 180 rpm.
(§2) The study of the antibacterial effect of Lev and adjuvants was carried out by (a) agar diffusion test and (b) broth micro-dilution method. (a) A measured 500 µL of 100-fold culture dilution was evenly distributed over a solid nutrient medium (LB, pH 7.2) on a Petri dish. After 20 min, agar disks with a diameter of 9 mm were removed from the cups and 50 µL of the test samples were placed in the formed wells at the required concentration in a sterile PBS buffer (see Section 3.3 (2)). After 30 min, Petri dishes were placed in a 37 °C thermostat. After 24 h, the diameters of the growth inhibition zones were measured. Minimum inhibitory concentrations (MICs) are determined as the infimum of multiple concentrations of an antimicrobial that inhibits the visible growth of a microorganism after overnight incubation. (b) According to the standard broth micro-dilution method, 200 µL of the overnight culture (5 × 10^6 CFU) was placed into a 96 micro-titer plate wells. Then 50 µL of tested samples was added. The range of tested Lev concentration was 4–200 ng/mL, adjuvants concentration was in the range of 0.008–2 mg/mL. Optical density measurements at 600 nm were taken at various times (0, 3, and 18 h) to determine the number of cells. The dependence of CFU (determined by A600) on the concentration of Lev, APAB or terpenoid (briefly X) was approximated according to the Boltzmann equation (Origin software): CFU = (control CFU)/(1 + exp(([X] − MIC50)/constant value)). MIC50 and MIC90 are defined as concentrations at which the inhibition of bacterial growth by 50 and 90% is noticeable, respectively. In other words, the concentration at which the ordinate value (CFU) is equal to 50 or 10% of the control sample minus the background.

B. subtilis (NCIB 8054) [3] = assay: Agar diffusion test, MIC; format: cell-based, Bacillus subtilis; details: B. subtilis; for antibacterial activity of CD complex: up to 3–5 mg/mL concentration; for MIC: agar diffusion test, LB pH 7.2, 37 °C, 20 h
Method: as §1, §2

E. coli = assay: Synergy of adjuvant-MCD with Lev-MCD, growth inhibition zones in agar; format: cell-based, Escherichia coli; details: E. coli; for D, diameter of bacterial inhibition zone surrounding Lev–MCD with APAB-MCD / ϕLev = (D/DLev)^2 / FICI: CLev 0.1 μg/mL; for D, diameter of bacterial inhibition zone surrounding Lev–MCD with APAB-MCD: Lev-MCD + X-MCD (1:2), ±0.5; for ϕLev = (D/DLev)^2: ±0.1; for FICI: ±15%
Method: We obtained complex formulations containing adjuvants-MCD and Lev-MCD. These complexes were referred to as enhanced Lev. The synergy effect was studied at a constant concentration of Lev and a variable concentration of an enhancer. […] Based on the D/DLev ratio, the effectiveness of cooperative antibacterial action (ϕ) of the adjuvant and Lev was calculated. The fractional inhibitory concentration (FIC) parameter was introduced: at a fixed Lev concentration, the FIC of adjuvant corresponds to the minimum fractional adjuvant concentration at which the antibacterial effect was still manifest (MICadjuvant in the presence of Lev). The fractional inhibitory concentration index (FICI) characterizes the ratio of the active Lev and adjuvant concentrations to the MIC values of these substances individually: FICI=[Lev]/MIC(Lev)[…][adjuvant]/MIC(adjuvant) (see Section 3).
The FICI was interpreted as: synergism (<0.35), additivity (0.35–0.75), indifference (0.75–1.4), or antagonism (>1.4). FICI is designed to determine the type of Lev interaction with adjuvants.
as §2, with “After 24 h, the diameters of the growth inhibition zones were measured.” left out, “Optical density measurements at 600 nm were taken at various times (0, 3, and 18 h) to determine the number of cells.” left out, “MIC50 and MIC90 are defined as concentrations at which the inhibition of bacterial growth by 50 and 90% is noticeable, respectively.” left out
The FICI was interpreted as: synergism (<0.35), additivity (0.35–0.75), indifference (0.76–1.4), or antagonism (>1.4). The essence of this expression is to calculate the average change in the effective concentration compared to MIC. Note that the most important parameter corresponds to a decrease in MIC of Lev. However, FICI is designed to determine the type of interaction Lev with adjuvants.

[4] = Solubility of X in water and in the presence of MCD/HPCD (UV absorbance); details: 22 °C, pH 6.2, water
Method: (§3) (3) Solubility of X in water C0 = [Xaq] = A/(ε · l) was determined by UV absorbance after centrifugation of samples (10 min, 10,000× g). l = 1 cm. ε—molar absorbance coefficient (Figure 1C).

physchem = details: 22 °C, pH 6.2, water
Method: as §3

E. coli (NCIB 12210) [5] = assay: Broth micro-dilution method, MIC50/MIC90; format: cell-based, Escherichia coli
Method: as §1
as §2, with “In other words, the concentration at which the ordinate value (CFU) is equal to 50 or 10% of the control sample minus the background.” left out

B. subtilis (NCIB 8054) [6] = assay: Broth micro-dilution method, MIC50/MIC90; format: cell-based; details: Bacillus subtilis, NCIB8054
Method: as §1
The study of the antibacterial effect of Lev and adjuvants was carried out by (a) agar diffusion test and (b) broth micro-dilution method. (a) A measured 500 µL of 100-fold culture dilution was evenly distributed over a solid nutrient medium (LB, pH 7.2) on a Petri dish. […] After 24 h, the diameters of the growth inhibition zones were measured. Minimum inhibitory concentrations (MICs) are determined as the infimum of multiple concentrations of an antimicrobial that inhibits the visible growth of a microorganism after overnight incubation. […] The dependence of CFU (determined by A600) on the concentration of Lev, APAB or terpenoid (briefly X) was approximated according to the Boltzmann equation (Origin software): CFU = (control CFU)/(1 + exp(([X] − MIC50)/constant value)). […]

[7] = MCD, cited from earlier work; for EE, %: C(MCD) = 0.01 M
[8] = HPCD, cited from earlier work
[9] = Escherichia coli, NCIB12210, broth micro-dilution

SMILES	EE, % [1] [%]	LC, % [1] [%]	n [1]	antibacterial activity of CD complex (E. coli (NCIB 12210) [2])	antibacterial activity of CD complex (B. subtilis (NCIB 8054) [3])	decrease of MICLev in the presence of adjuvant (E. coli)	D, diameter of bacterial inhibition zone surrounding Lev–MCD with APAB-MCD (E. coli) [mm]	ϕLev = (D/DLev)^2 (E. coli)	FICI (E. coli)	solubility (physchem) [µM]	other results
C=CCc1cc(OC)c(OC)c(OC)c1OC [Allyltetramethoxybenzene]	45 ± 4	11 ± 1	1.74 ± 0.11	inactive	inactive	1.25–1.5 times	12	1.1	0.50	–	solubility [4]: 160 ± 20 µM
C=CCc1cc2c(c(OC)c1OC)OCO2 [Dillapiol]	56 ± 10	13 ± 1	1.3 ± 0.2	–	–	1.25–1.5 times	13.75	1.3	0.04	240 ± 50 (≈ 53.3 µg/mL)	–
C[C@H]1COc2c(N3CCN(C)CC3)c(F)cc3c(=O)c(C(=O)O)cn1c23 [Levofloxacin]	–	–	–	–	–	–	–	–	–	–	MIC (E. coli (NCIB 12210) [2]; Escherichia coli, NCIB12210, agar diffusion test, read-out: MIC): 0.1 µg/mL (≈ 0.277 µM); MIC (E. coli (NCIB 12210) [2]; agar diffusion test, listed as Lev): 0.10 µg/mL and 0.10 ± 0.01 µg/mL; MIC50 (E. coli (NCIB 12210) [5]; [9]): 0.01 ± 0.002 µg/mL (≈ 0.0277 µM); MIC90 (E. coli (NCIB 12210) [5]; [9]): 0.025 ± 0.004 µg/mL (≈ 0.0692 µM); improvement of the effect of Lev by MCD (E. coli (NCIB 12210) [5]; broth micro-dilution test): 30%; MIC (B. subtilis (NCIB 8054) [3]; listed as Lev): 0.45 ± 0.05 µg/mL (≈ 1.25 µM); MIC (B. subtilis (NCIB 8054) [3]; Bacillus subtilis, NCIB8054, read-out: MIC): 0.45 µg/mL (≈ 1.25 µM); MIC50 (B. subtilis (NCIB 8054) [6]): 0.03 ± 0.01 µg/mL (≈ 0.083 µM); MIC90 (B. subtilis (NCIB 8054) [6]): 0.08 ± 0.02 µg/mL (≈ 0.221 µM); EE, % [7]: 99 ± 12%; EE, % ([7]; listed as Lev): more than 90%; LC, % [7]: 28.3 ± 0.4%; EE, % ([8]; 0.01 M): 91 ± 15%; LC, % [8]: 24.1 ± 0.5%
C=CC(C)(O)CCC=C(C)C (centres unmarked) [Linalool]	80 ± 7	10 ± 1	1.2 ± 0.2	inactive	inactive	–	–	–	–	300 ± 50 (≈ 46.3 µg/mL)	–
C=CCc1cc(OC)c2c(c1)OCO2 [Myristicin]	99 ± 5	22 ± 2	0.67 ± 0.06	inactive	inactive	1.25–1.5 times	13.25	1.2	0.04	30 ± 7 (≈ 5.77 µg/mL)	molar ratio APAB:CD of inclusion complexes [1]: 2 to 1; EE, % ([1]; listed as myristicin): more than 90%

From PMC9321718 (Pharmaceuticals, 2022)
